# Measurements reported in PMC7556269, “Metabolic Profiling of a CB2 Agonist, AM9338, Using LC-MS and Microcoil-NMR: Identification of a Novel Dihydroxy Adamantyl Metabolite” (Frontiers in Pharmacology, 2020).
# Read-outs that look alike come from different tables or passages of the source.
# Assays:
# [1] = Microsomal stability, rat liver microsomes; format: in vitro ADME; set-up: microsomal CLint / half-life: dose or concentration left out as unconfirmed; settings: for CLint scaled: read-out: CLint (ml/min/kg) (Mean ± S.D.); for half-life: rat, liver microsomes, pH 7.4, rat liver microsomes, read-out: t1/2 (min) (Mean ± S.D.)
# Method: (§1) AM9338 (50 µM) was incubated at 37 °C with mouse, rat or human microsomes (0.5 mg/ml) in 50 mM potassium phosphate buffer, pH 7.4. Samples were taken immediately after the addition of NADPH (final concentration 1 mM) and again after 30 and 60 min of incubation; the reaction was terminated through protein precipitation with ice cold methanol followed by centrifugation at 4000 g for 10 min. The resulting supernatant was analyzed using LC-MS/MS.
# (§2) Chromatographic separation of AM9338 and its metabolites was achieved using a Phenomenex Kinetex F5 column (4.6 × 150 mm, 100 Å pore size, 2.6 μm particle size) on a Thermo Accela HPLC (Thermo, San Jose, CA, USA) coupled to an API-4000 Q-Trap (AB Sciex, Concord, Ontario, Canada). Samples were eluted with mobile phases consisting of 0.1 % formic acid in acetonitrile (A) and 0.1 % formic acid in HPLC grade water (B) starting at 10% A for 2.6 min, ramping to 90%A over the next 9.4 min, and holding at 90%A for 2.8 min before returning to initial conditions for a total run time of 18.5 min; the flow rate was 0.8 ml/min and the autosampler and column oven were set to 4°C and 35°C, respectively. The mass spectrometer was operated in electrospray ionization (ESI) positive ion mode with the following conditions: ion spray voltage = 5,500 V; heater temperature = 550 °C; curtain gas = 20 psi; Q2 collision gas = set as high; source gas 1 (GS1) = 50 psi; source gas 2 (GS2) = 55 psi. High purity nitrogen was used as a source and collision gas and the compounds were detected in the multiple reaction monitoring (MRM) mode.
# (§3) The susceptibility of AM9338 to CYP enzymes or hydrolytic enzymes was tested at 37°C in human, mouse and rat liver microsomes, in the presence or absence of NADPH. […] The disappearance of AM9338 in microsomes followed a first-order elimination kinetics with low elimination half-life (t1/2 < 4 min) and high intrinsic microsomal clearance of microsomal protein across all three species as shown in Table 1 .
# [2] = Microsomal stability, human liver microsomes; format: in vitro ADME; set-up: half-life / microsomal CLint: dose or concentration left out as unconfirmed; settings: for half-life: human, liver microsomes, pH 7.4, human liver microsomes, read-out: t1/2 (min) (Mean ± S.D.); for CLint scaled: read-out: CLint (ml/min/kg) (Mean ± S.D.)
# Method: as §1, §2, §3
# [3] = Microsomal stability, mouse liver microsomes; format: in vitro ADME; set-up: microsomal CLint / half-life: dose or concentration left out as unconfirmed; settings: for half-life: mouse, liver microsomes, pH 7.4, mouse liver microsomes, read-out: t1/2 (min) (Mean ± S.D.); for CLint scaled: read-out: CLint (ml/min/kg) (Mean ± S.D.)
# Method: as §1, §2, §3
# mCB2 = mCB2 (Mus musculus, UniProt P47936); assay: CB2 receptor binding affinity (mCB2); settings: stated in introduction, no method or reference given
# mCB2, sequence (P47936 whole entry): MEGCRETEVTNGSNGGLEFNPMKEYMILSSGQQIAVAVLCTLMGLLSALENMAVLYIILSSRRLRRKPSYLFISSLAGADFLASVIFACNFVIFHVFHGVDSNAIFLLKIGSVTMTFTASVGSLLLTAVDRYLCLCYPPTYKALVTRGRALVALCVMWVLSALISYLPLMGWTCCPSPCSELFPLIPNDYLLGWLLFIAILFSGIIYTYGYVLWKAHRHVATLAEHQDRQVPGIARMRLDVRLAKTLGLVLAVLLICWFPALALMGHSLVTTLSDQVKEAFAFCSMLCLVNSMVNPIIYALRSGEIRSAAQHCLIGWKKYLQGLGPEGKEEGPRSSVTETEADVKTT
# [4] = Non-compartmental pharmacokinetics in mice after i.v. and oral dosing; format: in vivo; settings: for bioavailability: oral 8 mg/kg vs I.V. 2 mg/kg
# Method: The non-compartmental pharmacokinetic parameters following intravenous (2 mg/kg, i.v.) and oral (8 mg/kg, p.o.) dosing are presented in Table 2 .
# hCB2 = hCB2 (Homo sapiens, UniProt P34972); assay: CB2 receptor binding affinity (hCB2); settings: stated in introduction, no method or reference given
# hCB2, sequence (P34972 whole entry): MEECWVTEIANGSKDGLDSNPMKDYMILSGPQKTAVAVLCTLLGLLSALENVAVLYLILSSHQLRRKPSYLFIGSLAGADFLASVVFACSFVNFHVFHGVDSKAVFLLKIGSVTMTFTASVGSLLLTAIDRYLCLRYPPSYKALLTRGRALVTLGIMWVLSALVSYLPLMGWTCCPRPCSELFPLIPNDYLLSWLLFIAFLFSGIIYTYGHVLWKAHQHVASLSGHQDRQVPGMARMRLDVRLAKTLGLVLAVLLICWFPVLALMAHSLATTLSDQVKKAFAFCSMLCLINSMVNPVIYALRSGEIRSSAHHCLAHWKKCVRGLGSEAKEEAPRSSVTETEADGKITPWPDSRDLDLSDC
# CYP3A4 = CYP3A4 (Homo sapiens, UniProt P08684); assay: CYP phenotyping using CYP specific chemical inhibitors; format: in vitro ADME; settings: preliminary
# CYP3A4, sequence (P08684 whole entry): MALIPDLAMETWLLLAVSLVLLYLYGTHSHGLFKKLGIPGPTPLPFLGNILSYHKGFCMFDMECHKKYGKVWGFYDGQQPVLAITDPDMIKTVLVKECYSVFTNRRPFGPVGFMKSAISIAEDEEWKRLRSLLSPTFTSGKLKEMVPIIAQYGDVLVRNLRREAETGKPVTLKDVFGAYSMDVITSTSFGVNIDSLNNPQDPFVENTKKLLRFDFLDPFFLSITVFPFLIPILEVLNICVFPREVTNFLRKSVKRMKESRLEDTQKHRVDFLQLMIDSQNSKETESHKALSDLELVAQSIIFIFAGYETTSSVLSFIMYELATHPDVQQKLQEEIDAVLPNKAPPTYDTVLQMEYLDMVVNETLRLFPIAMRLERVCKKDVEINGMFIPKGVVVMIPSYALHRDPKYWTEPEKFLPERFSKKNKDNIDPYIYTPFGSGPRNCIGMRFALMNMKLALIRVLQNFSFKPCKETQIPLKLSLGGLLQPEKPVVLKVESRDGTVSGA
# [5] = Metabolite profile after incubation with pooled mouse liver microsomes (LC-UV/LC-MS); format: in vitro ADME; settings: NADPH, 37°C, 60 min
# Method: as §1
# Reconstituted extracts from the microsomal incubations were injected on a Supelco Discovery column C18, 250 × 4.6 mm column (Millipore-Sigma, St Louis, MO) on Thermo Accela HPLC system (Thermo Fisher Scientific, Austin, TX). The column temperature was maintained at 35°C, the flow rate was 0.8 ml/min, the injection volume was 20 µl and UV detector was set at 300 nm, maximal absorbance wavelength for AM9338. […]
# The metabolites M3 (trihydroxy), M4 (trihydroxy) and M8 (Ketone-hydroxyl) appear to be the metabolic end products of AM9338. […] The estimated relative percentage of each metabolite was calculated using the UV peak areas at the end of the incubation: M1 (49%), M2 (37%), M3 (1%), M4 (5%), M5 (4%), M7 (3%), M8 (1%), and M9 (2%). […] Human (HLM), Mouse (MLM) and rat liver microsomes (RLM) generated the very similar metabolite profile, with M1 and M2 being the major metabolic products, appearing in similar order of formation and relative quantities. […]
# [6] = mouse, iv, I.V. 2 mg/kg, plasma
# [7] = mouse, plasma, po, 8 mg/kg, oral 8 mg/kg
smiles,measurement,setting,value
O=C(NC12CC3CC(C1)C(O)C(C3)C2)c1nn(CCCn2ccnn2)c2ccccc12 (stereo not shown) [M1],CLint scaled,"[1]; pH 7.4, rat liver microsomes",565 ± 4.4 mL/min/kg
same,half-life,"[1]; 37°C, presence of NADPH",4.41 ± 0.31 min
same,half-life,"[2]; 37°C, presence of NADPH",13.1 ± 2.48 min
same,CLint scaled,"[2]; pH 7.4, human liver microsomes",121 ± 20 mL/min/kg
same,half-life,"[3]; 37°C, presence of NADPH",2.02 ± 0.11 min
same,CLint scaled,"[3]; pH 7.4, mouse liver microsomes",2730 ± 223 mL/min/kg
"O=C(NC12CC3CC(CC(C3)C1)C2)c1nn(CCCn2ccnn2)c2ccccc12 [AM9338, 1-(3-(1H-1,2,3-triazol-1-yl)propyl)-N-(adamantan-1-yl)-1H-indazole-3-carboxamide]",Ki,mCB2,2.3 nM
same,microsomal CLint,"[1]; pH 7.4, rat liver microsomes, presence of NADPH, read-out: CLint (µl/min/mg) (Mean ± S.D.)",830 ± 136 µL/min/mg
same,Stability in absence of NADPH,"[1]; rat microsomes, 37°C, no NADPH, tested up to 2 h",stable
same,Systemic plasma clearance as share of hepatic blood flow,[4]; I.V. 2 mg/kg,85 % of hepatic blood flow
same,t1/2,"[4]; I.V. 2 mg/kg, terminal half-life, 2 mg/kg",16.1 min
same,AUC,[4]; [6],438 ng·h/mL
same,C0,[4]; [6],2110 ng/mL
same,clearance,[4]; [6],75.9 mL/min/kg
same,AUC,"[4]; mouse, oral 8 mg/kg, plasma",267 ng·h/mL
same,half-life,"[4]; mouse, plasma, iv, 2 mg/kg, I.V. 2 mg/kg, terminal half-life",16 min
same,Vd,"[4]; mouse, plasma, iv, I.V. 2 mg/kg, read-out: Vd",1.76 L/kg
same,Tmax,"[4]; mouse, plasma, oral 8 mg/kg",60 min
same,bioavailability,"[4]; mouse, plasma, oral, 8 mg/kg, read-out: Bioavailability",~15%
same,Cmax,[4]; [7],240 ng/mL
same,half-life,[4]; [7],113 min
same,CL,[4]; oral 8 mg/kg,489 mL/min/kg
same,Vd,[4]; oral 8 mg/kg,79.9 L/kg
same,bioavailability,[4],15.5%
same,Cmax (Oral),"[4]; oral 8 mg/kg, plasma, 8 mg/kg",239 ± 230 ng/mL
same,Ki,hCB2,3 nM
same,Major CYP isoform responsible for the adamantyl oxidations,CYP3A4,CYP3A4
same,Extent of metabolism of parent,[5],almost completely metabolized
same,t1/2 (min) (Mean ± S.D.),"[2]; human liver microsomes, 37°C, presence of NADPH",3.3 ± 0.6 min
same,Stability in absence of NADPH,"[2]; human microsomes, 37°C, no NADPH, tested up to 2 h",stable
same,half-life,"[2]; 37°C, presence of NADPH",< 4 min
same,microsomal CLint,"[2]; pH 7.4, human liver microsomes, presence of NADPH, read-out: CLint (µl/min/mg) (Mean ± S.D.)",420 ± 93 µL/min/mg
same,Stability in absence of NADPH,"[3]; mouse microsomes, 37°C, no NADPH, tested up to 2 h",stable
same,microsomal CLint,"[3]; pH 7.4, mouse liver microsomes, presence of NADPH, read-out: CLint (µl/min/mg) (Mean ± S.D.)",2950 ± 282 µL/min/mg
O=C(NC12CC3CC(C1)C(O)C(C2)C3O)c1nn(CCCn2ccnn2)c2ccccc12 (stereo not shown) [M2],CLint scaled,"[1]; pH 7.4, rat liver microsomes",93 ± 10 mL/min/kg
same,half-life,"[1]; 37°C, presence of NADPH",26.8 ± 6.6 min
same,half-life,"[2]; 37°C, presence of NADPH",30.8 ± 6.7 min
same,CLint scaled,"[2]; pH 7.4, human liver microsomes",54 ± 4 mL/min/kg
same,half-life,"[3]; 37°C, presence of NADPH",10.5 ± 0.64 min
same,CLint scaled,"[3]; pH 7.4, mouse liver microsomes",520 ± 54 mL/min/kg
